≈ marks a conversion by molar mass, not a printed value.
Key:
[1] = system: human red blood (hRBC) cells; experiment: Hemolytic activity assay; assay type: cell-based; details: 2% human RBC in PBS, 37 °C, 2 h, absorbance 578 nm, triplicate
Method in brief: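 Healthy human RBCs (2% suspension in PBS) were incubated with serially diluted peptides for 2 h at 37 °C, and released hemoglobin in supernatant was read at 578 nm. Percent hemolysis was taken relative to distilled water (100%) after subtracting PBS (0%); run in triplicate.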

E. coli ATCC25922 [2] = experiment: Outer membrane permeability assay (NPN uptake); assay type: cell-based, Escherichia coli; details: 16 μM peptide, 10 min, excitation 350 nm, emission 420 nm
From the text: To explore the potential role of the helicity of the peptides in damaging cell membranes, we investigated the disruption of the outer membrane of Escherichia coli (E. coli) by quantifying the fluorescence intensity of 1-N-phenylnaphthylamine (NPN), which is a hydrophobic fluorescent probe. The intensity of NPN is weak in a hydrophilic environment. The fluorescence intensity of NPN gradually increases as it is exposed to a more hydrophobic environment due to damage to the bacterial outer membrane by MAPs.
The outer membrane permeability of the peptides against E. coli ATCC25922 was evaluated using the hydrophobic fluorescent probe NPN, as performed previously. In brief, E. coli was cultured in LB medium at 37 °C until the absorbance of the bacterial suspension at 600 nm was 0.4–0.6, the bacterial pellet was collected by centrifugation and resuspended in a reaction buffer (pH 7.4, 5 mM HEPES, 5 mM NaN3, 0.25 mM NPN) until the absorbance at 600 nm was 0.5. Then, an aliquot of the peptide sample and the bacterial suspension were co-incubated to give a final peptide concentration of 16 μM. The same volume of reaction buffer was used as the negative control. A Shimadzu RF-5301 PC fluorescent spectrometer (excitation wavelength of 350 nm, emission wavelength of 420 nm) was used to collect data continuously for 10 min.

P. aeruginosa ATCC27853 = experiment: Antimicrobial activity, microtiter dilution MIC; assay type: cell-based, Pseudomonas aeruginosa; details: G−; MH medium, 5 × 10^5 CFU/mL, 37 °C, 24 h, triplicate
Method in brief: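 Broth microdilution in Mueller–Hinton medium, inoculum 5 × 10^5 CFU/mL, serially diluted peptide, 24 h at 37 °C. MIC taken as lowest peptide concentration preventing growth; triplicate runs.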

E. coli ATCC25922 [3] = experiment: AFM imaging; assay type: cell-based, Escherichia coli; details: treatment 30 min, imaged in air, contact mode
Method: The mechanism of the interaction of the peptides with the different kinds of membranes was further analyzed by AFM. E. coli and HeLa cells were imaged to observe the morphologic change of cell membranes with, and without, treatment with V13K. […] Similarly, the surface of untreated cells fixed with, or without, 4% paraformaldehyde were intact and the membrane surface appeared quite smooth (Figure 4E–H).
The AFM imaging of E. coli ATCC25922 and HeLa cells before, and after, incubation with V13K were performed using an AFM 5500 (Agilent Technologies, Chandler, AZ, USA). The AFM imaging of E. coli was used on the contact mode and the cantilever was used as the B-tip (DNP, B-tip, Bruker AFM probes, California, CA, USA). The AFM imaging of HeLa was used on the AAC mode and the cantilever was used as the D-tip (DNP, D-tip, Bruker AFM probes, Camarillo, California, CA, USA). A single bacterial colony was picked and cultured in Mueller–Hinton (MH) medium for 18–20 h. […] The E. coli and peptide-treated bacteria samples (after treatment for 30 min) were applied onto mica and imaged in air using the contact mode and recorded with 512 × 512 pixels. The images of HeLa cells and peptide-treated HeLa cells (after treatment for 5 min) were obtained in Dulbecco’s Modified Eagle’s medium (DMEM) using the Acoustic AC (AAC) mode and recorded with 512 × 512 pixels. […]

With CC[C@H](C)[C@H](NC(=O)[C@H](C)NC(=O)[C@H](CCCCN)NC(=O)[C@H](CC(C)C)NC(=O)[C@H](C)NC(=O)[C@@H](NC(=O)[C@H](Cc1cnc[nH]1)NC(=O)[C@H](CC(C)C)NC(=O)[C@@H](NC(=O)[C@@H](NC(=O)[C@H](CCCCN)NC(=O)[C@H](CCCCN)NC(=O)[C@H](C)NC(=O)[C@H](CO)NC(=O)[C@H](CCCCN)NC(=O)[C@H](Cc1ccccc1)NC(=O)[C@@H](NC(=O)[C@H](CCCCN)NC(=O)[C@H](CC(C)C)NC(=O)[C@H](Cc1ccccc1)NC(=O)[C@H](CO)NC(=O)[C@H](CCCCN)NC(=O)[C@H](Cc1c[nH]c2ccccc12)NC(=O)[C@H](CCCCN)NC(C)=O)[C@@H](C)O)[C@@H](C)O)C(C)C)[C@@H](C)O)C(=O)N[C@@H](CO)C(=O)N[C@@H](CO)C(N)=O [Peptide V13K] as the compound, how does the “MHC (minimal hemolytic concentration)” value [1] read?
Its value is 250 µM.

And the “Outer membrane permeabilization, NPN fluorescence intensity” value (E. coli ATCC25922 [2])?
The value was “enhanced”.

And the MIC (P. aeruginosa ATCC27853)?
Its MIC is 8 µM (≈ 23.9 µg/mL).

What about the “Morphology of bacterial membrane by AFM” value (E. coli ATCC25922 [3]) of the same compound?
Its value is “obvious damage to the morphology of bacterial membrane”.

— paper PMC5796017, “Enantiomeric Effect of D-Amino Acid Substitution on the Mechanism of Action of α-Helical Membrane-Active Peptides” (International Journal of Molecular Sciences, 2017)
